Among the data in ChEMBL document CHEMBL1201862, “PubChem BioAssay data set” (2004) are EC50, AC50 and IC50 values, retold here.

SMILES strings stand for the structures. Activity calls are given as the source filed them. Bounds are passed on as bounds.

Holding throughout (format): functional
In one test the target is T1, Protein RecA (Mycobacterium tuberculosis, UniProt P9WHJ3).
T1 sequence (P9WHJ3 whole entry): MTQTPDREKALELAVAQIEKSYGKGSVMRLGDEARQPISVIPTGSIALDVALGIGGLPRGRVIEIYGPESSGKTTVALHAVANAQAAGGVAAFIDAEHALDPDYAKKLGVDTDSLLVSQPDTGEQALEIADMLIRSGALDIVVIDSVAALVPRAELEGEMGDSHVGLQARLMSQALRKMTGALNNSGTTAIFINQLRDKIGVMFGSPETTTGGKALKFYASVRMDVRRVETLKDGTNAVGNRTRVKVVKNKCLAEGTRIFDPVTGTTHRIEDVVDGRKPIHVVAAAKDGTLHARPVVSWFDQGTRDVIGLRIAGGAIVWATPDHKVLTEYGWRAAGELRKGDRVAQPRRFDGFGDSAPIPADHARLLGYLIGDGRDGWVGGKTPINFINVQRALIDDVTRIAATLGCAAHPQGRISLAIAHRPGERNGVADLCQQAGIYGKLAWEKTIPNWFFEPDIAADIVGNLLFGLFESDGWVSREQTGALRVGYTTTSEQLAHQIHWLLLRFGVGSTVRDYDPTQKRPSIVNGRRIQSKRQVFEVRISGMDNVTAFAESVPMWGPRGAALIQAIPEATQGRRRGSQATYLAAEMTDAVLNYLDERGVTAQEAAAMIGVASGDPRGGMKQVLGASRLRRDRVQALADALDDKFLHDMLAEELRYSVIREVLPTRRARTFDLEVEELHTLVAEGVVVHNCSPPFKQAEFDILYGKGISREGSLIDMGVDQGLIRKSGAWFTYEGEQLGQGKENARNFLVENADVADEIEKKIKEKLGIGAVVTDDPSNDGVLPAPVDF
In words: Fluorescence Cell-Free Homogeneous Dose Retest to Identify Inhibitors of RecA-Intein Splicing Activity. [Related pubchem assays (depositor defined):AID2097, AID2223, AID489010, AID492950].

Test [1] addresses T2, Replicative DNA helicase DnaB (Mycobacterium tuberculosis, UniProt P9WMR3).
T2 sequence (P9WMR3 whole entry): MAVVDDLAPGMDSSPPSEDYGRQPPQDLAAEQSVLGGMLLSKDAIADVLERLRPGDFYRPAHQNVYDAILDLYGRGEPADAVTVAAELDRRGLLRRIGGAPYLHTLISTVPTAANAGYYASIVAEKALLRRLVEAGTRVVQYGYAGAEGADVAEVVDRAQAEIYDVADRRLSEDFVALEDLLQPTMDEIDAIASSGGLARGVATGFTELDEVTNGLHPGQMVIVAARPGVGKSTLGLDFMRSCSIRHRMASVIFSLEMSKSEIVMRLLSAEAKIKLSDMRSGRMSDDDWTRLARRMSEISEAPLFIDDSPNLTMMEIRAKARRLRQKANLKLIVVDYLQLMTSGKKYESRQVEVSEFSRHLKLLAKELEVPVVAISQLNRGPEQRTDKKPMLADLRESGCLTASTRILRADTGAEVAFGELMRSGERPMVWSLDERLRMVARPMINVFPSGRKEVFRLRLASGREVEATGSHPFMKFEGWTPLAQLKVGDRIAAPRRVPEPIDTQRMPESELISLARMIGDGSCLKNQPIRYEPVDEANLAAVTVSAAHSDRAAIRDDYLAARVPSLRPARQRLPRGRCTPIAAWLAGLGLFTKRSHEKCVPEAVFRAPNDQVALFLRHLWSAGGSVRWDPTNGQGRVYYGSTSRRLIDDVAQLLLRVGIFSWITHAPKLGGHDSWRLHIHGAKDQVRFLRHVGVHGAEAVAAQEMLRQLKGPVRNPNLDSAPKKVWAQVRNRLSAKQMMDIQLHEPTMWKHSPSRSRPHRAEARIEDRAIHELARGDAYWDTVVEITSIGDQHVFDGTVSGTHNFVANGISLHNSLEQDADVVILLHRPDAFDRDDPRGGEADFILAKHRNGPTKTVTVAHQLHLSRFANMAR
In words: DnaB intein splicing inhibitors, dose response, biochemical, cell-free fluorescence (AID 449749).

In another test the target is T3, Caspase-3 (Homo sapiens, UniProt P42574).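 Further: Dose-response selectivity test against caspase-3 for candidate inhibitors of sentrin-specific proteases (SENPs).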
T3 sequence (P42574 whole entry): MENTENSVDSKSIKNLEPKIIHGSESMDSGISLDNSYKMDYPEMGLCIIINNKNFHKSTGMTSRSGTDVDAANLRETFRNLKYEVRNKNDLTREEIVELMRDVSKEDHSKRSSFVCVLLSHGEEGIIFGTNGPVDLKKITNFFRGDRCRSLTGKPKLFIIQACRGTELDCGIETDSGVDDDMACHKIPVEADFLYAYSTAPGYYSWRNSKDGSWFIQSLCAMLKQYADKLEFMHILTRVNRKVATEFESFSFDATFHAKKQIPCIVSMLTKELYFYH

A further test concerns the target T4, Hexokinase HKDC1 (Homo sapiens, UniProt Q2TB90).
T4 sequence (Q2TB90 whole entry): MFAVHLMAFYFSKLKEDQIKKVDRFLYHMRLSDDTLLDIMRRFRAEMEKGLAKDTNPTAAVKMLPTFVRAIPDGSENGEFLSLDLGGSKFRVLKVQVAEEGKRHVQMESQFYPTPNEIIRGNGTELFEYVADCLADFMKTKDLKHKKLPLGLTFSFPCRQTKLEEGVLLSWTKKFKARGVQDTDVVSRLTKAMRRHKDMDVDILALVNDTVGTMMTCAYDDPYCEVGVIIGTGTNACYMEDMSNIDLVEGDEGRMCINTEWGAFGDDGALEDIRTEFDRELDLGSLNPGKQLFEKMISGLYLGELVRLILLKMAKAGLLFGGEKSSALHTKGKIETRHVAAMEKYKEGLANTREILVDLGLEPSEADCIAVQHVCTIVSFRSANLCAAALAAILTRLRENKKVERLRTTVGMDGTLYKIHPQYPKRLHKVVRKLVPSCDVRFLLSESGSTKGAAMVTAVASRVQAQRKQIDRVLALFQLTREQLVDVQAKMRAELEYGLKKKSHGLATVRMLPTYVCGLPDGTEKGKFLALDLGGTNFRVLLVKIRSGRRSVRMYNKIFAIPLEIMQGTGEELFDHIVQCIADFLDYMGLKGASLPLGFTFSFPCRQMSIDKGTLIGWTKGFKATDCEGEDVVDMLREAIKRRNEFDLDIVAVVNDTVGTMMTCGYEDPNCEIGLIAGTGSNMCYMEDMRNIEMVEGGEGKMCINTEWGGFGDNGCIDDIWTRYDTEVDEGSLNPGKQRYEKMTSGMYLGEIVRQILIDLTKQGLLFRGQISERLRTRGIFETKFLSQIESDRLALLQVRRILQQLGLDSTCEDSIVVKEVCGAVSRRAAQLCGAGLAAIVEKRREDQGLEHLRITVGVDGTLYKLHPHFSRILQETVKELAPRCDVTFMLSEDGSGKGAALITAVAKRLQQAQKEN
In words: inhibition of HKDC1 glucose phosphorylation – biochemical, W721R variant, dose response (AID 504729).

For the molecule `NC(=O)C1CCN(C2=C(Cl)C(=O)c3ccccc3C2=O)CC1`, at Protein RecA, the concentration for a half-maximal effect (EC50) is 0.146 µM (active). Also, in test [1], the AC50 was 0.617 µM (active). The figures for the IC50 at Caspase-3 and at Hexokinase HKDC1 were 7.35 µM (active) and 25.9 µM (inactive), respectively.
Consider `O=c1c2ccccc2nc(/C=C/c2cccnc2)n1Cc1ccccc1`, for which the half-maximal effective concentration (EC50) on Protein RecA is 9.92 µM (active). Besides, the concentration at half-maximal activity (AC50) in test [1] is 9.28 µM (active). In addition, the IC50 on Hexokinase HKDC1 is 3.2 µM (active).
For `O=C(O)c1ccc(N/N=C/c2ccc(OC(=O)c3ccccc3Cl)cc2)cc1`, the IC50 at Caspase-3 was 14.8 µM (active).
In the case of `COC(=O)c1ccccc1NC1=C/C(=N\S(=O)(=O)c2ccc(C(=O)O)cc2)c2ccccc2C1=O`, the half-maximal activity concentration (AC50) in test [1] is > 380 µM (inconclusive). For the same molecule, on Hexokinase HKDC1, the IC50 is 3.84 µM (active).

A word on the EC50: it is the concentration giving half of the maximal effect. The AC50 is the midpoint of the concentration-response curve, whichever way the signal moves. Usually IC50 stands for the concentration needed to halve the response being measured.
